Entries after “also recorded” stand apart in the source; their conditions may differ.
Test system: oral mucositis in patients receiving chemoradiation for head and neck cancer
Experiment: Phase 2 randomized, double-blind, placebo-controlled trial: onset of oral mucositis (WHO OM Scale) in patients receiving CT/RT
Format: in vivo, human
Settings: for gastrostomy tube placement and use / unplanned office and emergency room visits: higher dose (0.1 mg/kg); for severe OM, percent of patients: subcutaneous 0.1 mg/kg (HD)
Description: OM is a painful, debilitating, and costly toxicity of different chemoradiotherapy (CT/RT) regimens used to treat head and neck cancer. This trial is a phase 2, randomized, double-blind, dose-ranging, placebo-controlled three-arm study in patients receiving CT/RT for the treatment of head and neck cancer, to assess the safety and tolerability of γ-D-glutamyl-L-tryptophan (SCV-07) as well as its efficacy in delaying the onset of severe OM as assessed by the WHO Oral Mucositis Scale.
The WHO OM Scale is the standard, validated instrument used in clinical trials to measure OM: Grade 0=none; Grade 1=erythema and soreness, no ulcers; Grade 2=ulcers, able to eat a solid diet; Grade 3=ulcers; requires a liquid diet; Grade 4=ulcers, not able to tolerate a solid or liquid diet, requires IV or tube feeding.
59 eligible patients with recently diagnosed, treatment naïve, pathologically-confirmed, non-metastatic squamous cell carcinoma of the oral cavity, oropharynx, hypopharynx or larynx were enrolled and treated with a concomitant regimen of CT/RT consisting of a continuous course of external beam irradiation (IMRT eligible) with a minimum cumulative dose of 50 Gray (Gy) and cisplatin monotherapy administered using standard weekly or tri-weekly dosing regimens (80-100 mg/m^2 administered on Days 0, 21 and 42) or weekly (30-40 mg/m^2). At least two ‘at risk’ intraoral sites were included in the radiation fields and received a cumulative RT dose of at least 50 Gy. Subjects were equally randomized to receive either placebo or one of two doses of γ-D-glutamyl-L-tryptophan (0.02 or 0.1 mg/kg) on each radiation day for up to 7 weeks.
Tables 2-7 summarize the statistics for the Full Analysis Set “FAS” (57 subjects), and the completer population (52 subjects), with respect to delay of onset of severe oral mucositis. Also see FIGS. 1 and 2.
SCV-07 efficacy, dosing and scheduling parameters were assessed in hamster models of acute, fractionated and concomitant chemoradiation (CRT). […] A multicenter, prospective, blinded, randomized trial evaluated SCV-07's ability to alter OM in CRT-treated HNC patients (n=57). Cytokine and gene microarray analyses were performed for samples obtained before and on the last radiation day.

[1] = 0.10 mg/kg, Completer Population
[2] = 0.10 mg/kg, Completer Population, at 30-<35 Gy
[3] = 0.10 mg/kg, Completer Population, at 35-<40 Gy
[4] = 0.10 mg/kg, Completer Population, at 40-<45 Gy
[5] = 0.10 mg/kg, Completer Population, at 45-<50 Gy
[6] = 0.10 mg/kg, Completer Population, at 50-<55 Gy
[7] = 0.10 mg/kg, Completer Population, at 55-<60 Gy
[8] = 0.10 mg/kg, Completer Population, at 65-<70 Gy
[9] = 0.10 mg/kg, Completer Population, at ≧70 Gy
[10] = listed as γ-D-glutamyl-L-tryptophan, 0.1 mg/kg

## N[C@H](CCC(=O)N[C@@H](Cc1c[nH]c2ccccc12)C(=O)O)C(=O)O [SCV-07, γ-D-glutamyl-L-tryptophan]
[1]
  Cumulative Dose of RT (Gy) at Initial Onset of Ulcerative OM, Median: 26 Gy
  Cumulative Dose of RT (Gy) at Initial Onset of Ulcerative OM, Min: 8 Gy
  Cumulative Dose of Radiation (Gy) Prior to Initial Occurrence of Severe OM (Delay to Onset of Severe OM), K-M Estimate, Mean (SE): 56 (3.8) Gy
  Cumulative Dose of Radiation (Gy) Prior to Initial Occurrence of Severe OM, K-M Estimate, Median (95% CI): 57 (51, NA) Gy
  Cumulative Dose of Radiation (Gy) Prior to Initial Occurrence of Ulcerative OM (Delay to Onset of Ulcerative OM), K-M Estimate, Mean (SE): 30 (3.7) Gy
  Cumulative Dose of Radiation (Gy) Prior to Initial Occurrence of Ulcerative OM, K-M Estimate, 25%-75%: 19-46 Gy
  Cumulative Dose of Radiation (Gy) Prior to Initial Occurrence of Ulcerative OM, K-M Estimate, Median (95% CI): 26 (19, 41) Gy
  Time (Days) to Initial Occurrence of Sever OM, K-M Estimate, Mean (SE): 38 (2.5) Days
  Time (Days) to Initial Occurrence of Sever OM, K-M Estimate, Median (95% CI): 43 (33, NA) Days
  Time (Days) to Initial Occurrence of Ulcerative OM, K-M Estimate, 25%-7%: 12 to 32 days
  Time (Days) to Initial Occurrence of Ulcerative OM, K-M Estimate, Mean (SE): 20 (2.7) Days
  Time (Days) to Initial Occurrence of Ulcerative OM, K-M Estimate, Median (95% CI): 16 (13, 31) Days
0.10 mg/kg, Completer Population, FIG. 3
  delay to onset of ulcerative OM (WHO score >1) as a function of cumulative radiation dose: showed a delay to onset of OM
0.10 mg/kg, Completer Population, at 5-<10 Gy
  Cum. Percent of Subjects with Ulcerative OM (WHO > 1): 6% (1%, 37%)
0.10 mg/kg, Completer Population, at 10-<15 Gy
  Cum. Percent of Subjects with Ulcerative OM (WHO > 1): 6% (1%, 37%)
0.10 mg/kg, Completer Population, at 15-<20 Gy
  Cum. Percent of Subjects with Ulcerative OM (WHO > 1): 38% (19%, 65%)
0.10 mg/kg, Completer Population, at 20-<25 Gy
  Cum. Percent of Subjects with Ulcerative OM (WHO > 1): 50% (29%, 75%)
0.10 mg/kg, Completer Population, at 25-<30 Gy
  Cum. Percent of Subjects with Ulcerative OM (WHO > 1): 63% (40%, 85%)
[2]
  Cum. Percent of Subjects with Severe OM (WHO > 2): 13% (3%, 41%)
  Cum. Percent of Subjects with Ulcerative OM (WHO > 1): 69% (46%, 89%)
[3]
  Cum. Percent of Subjects with Severe OM (WHO > 2): 13% (3%, 41%)
  Cum. Percent of Subjects with Ulcerative OM (WHO > 1): 69% (46%, 89%)
[4]
  Cum. Percent of Subjects with Severe OM (WHO > 2): 19% (6%, 48%)
  Cum. Percent of Subjects with Ulcerative OM (WHO > 1): 75% (53%, 92%)
[5]
  Cum. Percent of Subjects with Severe OM (WHO > 2): 25% (10%, 54%)
  Cum. Percent of Subjects with Ulcerative OM (WHO > 1): 75% (53%, 92%)
[6]
  Cum. Percent of Subjects with Severe OM (WHO > 2): 38% (19%, 65%)
  Cum. Percent of Subjects with Ulcerative OM (WHO > 1): 94% (75%, 100%)
[7]
  Cum. Percent of Subjects with Severe OM (WHO > 2): 56% (34%, 80%)
  Cum. Percent of Subjects with Ulcerative OM (WHO > 1): 94% (75%, 100%)
0.10 mg/kg, Completer Population, at 60-<65 Gy
  Cum. Percent of Subjects with Ulcerative OM (WHO > 1): 94% (75%, 100%)
0.10 mg/kg, Completer Population, at 60->65 Gy
  Cum. Percent of Subjects with Severe OM (WHO > 2): 64% (41%, 86%)
[8]
  Cum. Percent of Subjects with Severe OM (WHO > 2): 73% (48%, 92%)
  Cum. Percent of Subjects with Ulcerative OM (WHO > 1): 94% (75%, 100%)
0.10 mg/kg, Completer Population, at <5 Gy
  Cum. Percent of Subjects with Ulcerative OM (WHO > 1): 0% (0%, 0%)
0.10 mg/kg, Completer Population, at <30 Gy
  Cum. Percent of Subjects with Severe OM (WHO > 2): 6% (1%, 37%)
[9]
  Cum. Percent of Subjects with Severe OM (WHO > 2): 73% (48%, 92%)
  Cum. Percent of Subjects with Ulcerative OM (WHO > 1): 94% (75%, 100%)
0.10 mg/kg, FAS population
  Cumulative Dose of RT (Gy) at Initial Onset of Severe OM, Max: 72 Gy
  Cumulative Dose of RT (Gy) at Initial Onset of Severe OM, Mean (SD): 54 (15.6) Gy
  Cumulative Dose of RT (Gy) at Initial Onset of Severe OM, Median: 56 Gy
  Cumulative Dose of RT (Gy) at Initial Onset of Severe OM, Min: 20 Gy
  Cumulative Dose of Radiation (Gy) Prior to Initial Occurrence of Severe OM (Delay to Onset of Severe OM), K-M Estimate, Mean (SE): 54 (3.9) Gy
  Cumulative Dose of Radiation (Gy) Prior to Initial Occurrence of Severe OM, K-M Estimate, Median (95% CI): 56 (46, 70) Gy
  Time (Days) to Initial Occurrence of Severe OM, K-M Estimate, Mean (SE): 37 (2.7) Days
  Time (Days) to Initial Occurrence of Severe OM, K-M Estimate, Median (95% CI): 40 (32, NA) Days
0.10 mg/kg, FAS population, at 30-<35 Gy
  Cum. Percent of Subjects with Severe OM (WHO > 2): 18% (6%, 45%)
0.10 mg/kg, FAS population, at 35-<40 Gy
  Cum. Percent of Subjects with Severe OM (WHO > 2): 18% (6%, 45%)
0.10 mg/kg, FAS population, at 40-<45 Gy
  Cum. Percent of Subjects with Severe OM (WHO > 2): 24% (10%, 51%)
0.10 mg/kg, FAS population, at 45-<50 Gy
  Cum. Percent of Subjects with Severe OM (WHO > 2): 29% (13%, 57%)
0.10 mg/kg, FAS population, at 50-<55 Gy
  Cum. Percent of Subjects with Severe OM (WHO > 2): 41% (22%, 67%)
0.10 mg/kg, FAS population, at 55-<60 Gy
  Cum. Percent of Subjects with Severe OM (WHO > 2): 59% (37%, 81%)
0.10 mg/kg, FAS population, at 60-<65 Gy
  Cum. Percent of Subjects with Severe OM (WHO > 2): 66% (44%, 87%)
0.10 mg/kg, FAS population, at 65-<70 Gy
  Cum. Percent of Subjects with Severe OM (WHO > 2): 74% (51%, 93%)
0.10 mg/kg, FAS population, at >30 Gy
  Cum. Percent of Subjects with Severe OM (WHO > 2): 6% (1%, 35%)
0.10 mg/kg, FAS population, at ≧70 Gy
  Cum. Percent of Subjects with Severe OM (WHO > 2): 74% (51%, 93%)
0.10 mg/kg, Full Analysis Set, FIG. 1
  delay to onset of severe OM (WHO score >2) as a function of cumulative radiation dose: showed a delay to onset of OM
0.10 mg/kg, patients that completed radiation therapy, FIG. 2
  delay to onset of severe OM (WHO score >2) as a function of cumulative radiation dose: showed a delay to onset of OM
HD (0.1 mg/kg)
  treatment breaks: fewer
HD SCV-07 cohort vs. placebo
  Cox regression analysis of time to UOM initial occurrence, decrease vs. placebo: 52%
SCV-07 high dose
  Number of Days that Patients used the G-Tube: 44 days
SCV-07 high dose (n = 3/20)
  Percent of Patients with G-Tube Placement: 18%
SCV-07 low dose
  Number of Days that Patients used the G-Tube: 57 days
SCV-07 low dose (n = 4/20)
  Percent of Patients with G-Tube Placement: 20%
High dose (0.1 mg/kg) vs placebo, 0.1 mg/kg
  delay to onset of ulcerative OM (WHO scale, grades 2 to 4): more pronounced clinical benefit; also recorded: delayed
High dose (0.1 mg/kg) vs placebo, listed as γ-D-glutamyl-L-tryptophan, 0.1 mg/kg
  delay to onset of ulcerative OM (WHO scale, grades 2 to 4): showed a trend towards delay in onset
High dose vs placebo and low dose
  days of gastrostomy tube use: fewer days
Higher dose (0.1 mg/kg) vs placebo, 0.1 mg/kg
  delay to severe OM (WHO scale, grades 3 and 4), primary endpoint: showed a trend towards delay to severe OM; also recorded: delayed severe OM vs. placebo
Higher dose (0.1 mg/kg) vs placebo, listed as γ-D-glutamyl-L-tryptophan, 0.1 mg/kg
  delay to severe OM (WHO scale, grades 3 and 4), primary endpoint: showed a trend towards delay in onset
0.1 mg/kg
  gastrostomy tube placement and use: fewer G-tubes placed
  unplanned office and emergency room visits: fewer
[10]
  gastrostomy tube placement and use: less reliance on gastrostomy tube placement and use
  unplanned office and emergency room visits: fewer unplanned office and emergency room visits
Low dose (0.02 mg/kg) vs placebo
  delay to onset of ulcerative OM (WHO scale, grades 2 to 4): appeared similar or slightly better than placebo
Low dose (0.02 mg/kg) vs placebo, 0.02 mg/kg
  delay to severe OM (WHO scale, grades 3 and 4), primary endpoint: appeared to do worse than placebo and not
Patients receiving SCV-07 vs placebo
  placement of a gastrostomy feeding tube: less likely to require placement of a gastrostomy feeding tube
At 50 Gy, placebo 42%
  severe OM, percent of patients: 29%
At ≦40Gy, placebo 32%
  severe OM, percent of patients: 18%
